In patent US9018374B2, “Crystal of amide compound” (Takeda Pharmaceutical Company Limited, priority 2010, dated 2015):
“Also recorded” adds a separate entry of the source.

Legend:
[1] = Moisture adsorption analysis; format: physicochemical; details: 25° C., hydrochloride
Description: Moisture adsorption of type A crystal and type B crystal was automatically analyzed by VTI Symmetrical Gravimetric Analyzer in step-isothermal mode (SGA-100 for type A crystal, SGA-CX for type B crystal). Samples were exposed various relative humidities (RH) at 25° C. The weight of the samples at each relative humidity was recorded after equilibrium (weight change of less than 0.02% within 10 min).

Slurry interconversion = format: physicochemical; details: for crystal form 1 day later: 20 mg in 0.2 mL isopropyl alcohol, slurry at ambient temperature, powder X-ray diffraction, hydrochloride
Description: Type A crystal, type B crystal, and a mixture (1:1) of type A crystal and type B crystal (each 20 mg) were measured in vials, and isopropyl alcohol (0.2 mL) was added to give suspension containing excess solids remaining therein. The vial was sealed, and shaken on a slurry wheel at ambient temperature for 1 day at steady rotation. Thereafter, the solids were collected by filtration.

Dissolution test = details: room temperature (25° C.)
Description: To type A crystal and type B crystal (each 50 mg) were added 2-butanone, ethyl acetate, toluene, n-heptane and tert-butylmethylether (each 5 mL), and the dissolution property was measured using a powder suspension (25° C., 2 hr). The suspension was centrifuged, the supernatant was filtered with a filter (pore size 0.22 μm), and the solvent was evaporated from the filtrate under a nitrogen atmosphere. The residue obtained by evaporation was dissolved in a mixed solution of 50 mM aqueous ammonium acetate solution/acetonitrile (1:1), and measured by HPLC.

Row | level (%) of weight change ([1]; relative humidity 30% RH) [%] | level (%) of weight change ([1]; relative humidity 50% RH) [%] | level (%) of weight change ([1]; relative humidity 70% RH) [%] | crystal form 1 day later (Slurry interconversion) | thermodynamic stability as compared to type A crystal (from slurry experiment) (Slurry interconversion; ambient temperature) | thermodynamic stability as compared to type A crystal (from dissolution test) (Dissolution test) | Structure (SMILES)
1 | −0.1 | 0.0 | 7.6 | convert to type B crystal |  |  | COCCCCn1c(C(=O)N(CC(C)C)[C@@H]2CNC[C@H](C(=O)N3CCOCC3)C2)nc2ccccc21.Cl [type A crystal, 1-(4-methoxybutyl)-N-(2-methylpropyl)-N-[(3S,5R)-5-(morpholin-4-ylcarbonyl)piperidin-3-yl]-1H-benzimidazole-2-carboxamide hydrochloride, reference compound]
2 | 0.0 | 0.5 | 0.9 | no change; also recorded: type B | thermodynamically stable | thermodynamically stable | COCCCCn1c(C(=O)N(CC(C)C)[C@@H]2CNC[C@H](C(=O)N3CCOCC3)C2)nc2ccccc21.Cl [type B crystal, 1-(4-methoxybutyl)-N-(2-methylpropyl)-N-[(3S,5R)-5-(morpholin-4-ylcarbonyl)piperidin-3-yl]-1H-benzimidazole-2-carboxamide hydrochloride]
